# Experimental data: ChEMBL document CHEMBL6177951, “Synthesis and anti-MRSA activity of quaternized small molecule antimicrobial peptide mimics based on norharmane” (Eur J Med Chem, 2025)
# Activity calls are given as the source filed them. No cut-off for these calls is given here.
# How the values were obtained:
# Staphylococcus aureus [1] = assay: Antibacterial activity against methicillin-resistant Staphylococcus aureus clinical isolate M-18 incubated for 14 hrs by two-fold serial dilution method; assay type: functional
# Staphylococcus aureus [2] = assay: Antibiofilm activity against methicillin-resistant Staphylococcus aureus assessed as disruption of preformed biofilm at 0.25 to 16 ug/ml incubated for 24 hrs by crystal violet staining based analysis; assay type: functional, organism-based; details: dose 0.25-16 µg/ml
# L02 = assay: Cytotoxicity against human L02 cells assessed as reduction in cell viability at 0.25 ug/ml incubated for 24 hrs by CCK-8 assay relative to control; assay type: toxicity, cell-based; details: l02, 24 h, at 0.25 µg/mL
# Staphylococcus aureus [3] = assay: Antibacterial activity against Staphylococcus aureus ATCC 33591 assessed as resistance development by measuring fold increase in MIC at 0.5 times MIC incubated for 8 hrs and measured after 15 passages; assay type: functional
# Staphylococcus aureus [4] = assay: Antibacterial activity against methicillin-resistant Staphylococcus aureus clinical isolate M-19 incubated for 14 hrs by two-fold serial dilution method; assay type: functional
# Calf thymus DNA [5] = assay: Binding affinity to calf thymus DNA assessed as change in entropy at 3 uM by ITC assay; assay type: nucleic-acid assay; details: Bos taurus
# Cell membrane [6] = assay: Induction of cell membrane permeability in methicillin-resistant Staphylococcus aureus assessed as increase in protein leakage at 2 ug/ml incubated for 8 hrs by Bradford assay; assay type: subcellular; details: dose 2.0 µg/ml
# Staphylococcus aureus [7] = assay: Induction of ROS generation in methicillin-resistant Staphylococcus aureus assessed as fold increase in fluorescence intensity at 2 ug/ml incubated for 8 hrs by DCFH-DA dye analysis; assay type: functional; details: dose 2 µg/ml
# [8] = Toxicity in female Kunming mouse assessed as pathological changes in kidney at 500 to 2000 mg/kg, sc measured after 7 days by H and E staining based analysis; assay type: organism-based; details: in vivo, 168 h, dose 500-2000 mg/kg, time 7 day
# Lipoteichoic acid = assay: Displacement of BODIPY-TR-cadaverine from Staphylococcus aureus LTA assessed as increase in fluorescence intensity at 2 ug/ml incubated for 0.5 hrs by fluorescence based analysis relative to control; details: dose 2.0 µg/ml
# Staphylococcus aureus [9] = assay: Antibacterial activity against Staphylococcus aureus ATCC 29213 assessed as inhibition of bacterial growth incubated for 14 hrs by two-fold serial dilution method; assay type: functional
# Staphylococcus aureus [10] = assay: Antibacterial activity against Staphylococcus aureus ATCC 33591 assessed as log reduction in bacterial growth at 1 times MIC measured at 6 hrs by time-kill kinetic assay; assay type: functional
# Staphylococcus aureus [11] = assay: Induction of morphological changes in methicillin-resistant Staphylococcus aureus assessed as appearance of holes in cells at 0.5 ug/ml incubated for 6 hrs by SEM analysis; assay type: functional, organism-based; details: dose 0.5 µg/ml
# Staphylococcus aureus [12] = assay: Antibacterial activity against methicillin-resistant Staphylococcus aureus assessed as reduction in bacterial growth by measuring fold increase in MIC in presence of 32 ug/ml peptidoglycan incubated for 0.5 hrs by exogenous addition assay; assay type: functional
# Staphylococcus aureus [13] = assay: In vivo antibacterial activity against methicillin-resistant Staphylococcus aureus infected in female Kunming mouse skin infection model assessed as recovery of dorsal surface at 5 to 20 mg/kg measured after 48 hrs; assay type: functional, organism-based; details: dose 5-20 mg/kg
# Staphylococcus aureus [14] = assay: In vivo antibacterial activity against methicillin-resistant Staphylococcus aureus infected in female Kunming mouse skin infection model assessed as reduction in bacterial load measured after 48 hrs; assay type: functional, organism-based; details: dose 5-20 mg/kg
# [15] = Toxicity in female Kunming mouse assessed as abnormality inside skin at 5 to 20 mg/kg, sc measured after 48 hrs; assay type: organism-based; details: in vivo, dose 5-20 mg/kg
# [16] = Acute toxicity in female Kunming mouse assessed as aberrant behavior at 500 to 2000 mg/kg, sc measured after 7 days; assay type: organism-based; details: in vivo, 168 h, dose 500-2000 mg/kg, time 7 day
# [17] = Toxicity in female Kunming mouse assessed as inflammatory response in kidney at 500 to 2000 mg/kg, sc measured after 7 days by H and E staining based analysis; assay type: organism-based; details: in vivo, 168 h, dose 500-2000 mg/kg, time 7 day
# [18] = Toxicity in female Kunming mouse assessed as inflammatory response in liver at 500 to 2000 mg/kg, sc measured after 7 days by H and E staining based analysis; assay type: organism-based; details: in vivo, 168 h, dose 500-2000 mg/kg, time 7 day
# Cell membrane [19] = assay: Induction of cytoplasmic membrane depolarization in methicillin-resistant Staphylococcus aureus assessed as increase in fluorescence intensity by DiSC35 dye based microplate reader analysis; assay type: subcellular
# Calf thymus DNA [20] = assay: Binding affinity to calf thymus DNA assessed as change in enthalpy at 3 uM by ITC assay; assay type: nucleic-acid assay; details: Bos taurus
# Staphylococcus aureus [21] = assay: In vivo antibacterial activity against methicillin-resistant Staphylococcus aureus infected in female Kunming mouse skin infection model assessed as log reduction in bacterial load at 20 mg/kg measured after 48 hrs (reference value: 14.34 log10CFU/g); assay type: functional
# Staphylococcus aureus [22] = assay: In vivo antibacterial activity against methicillin-resistant Staphylococcus aureus infected in female Kunming mouse skin infection model assessed as reduction in inflammatory cells at 5 to 20 mg/kg measured after 48 hrs by H and E staining based analysis; assay type: functional, organism-based; details: dose 5-20 mg/kg
# Staphylococcus aureus [23] = assay: Antibacterial activity against methicillin-resistant Staphylococcus aureus clinical isolate M-13 incubated for 14 hrs by two-fold serial dilution method; assay type: functional
# Staphylococcus aureus [24] = assay: Antibiofilm activity against methicillin-resistant Staphylococcus aureus assessed as inhibition of biofilm formation at 4 ug/ml incubated for 24 hrs by crystal violet staining based analysis relative to control; assay type: functional; design: scale not given: the % may be the effect or the level left; details: dose 4 µg/ml
# [25] = Toxicity in female Kunming mouse assessed as pathological changes in liver at 500 to 2000 mg/kg, sc measured after 7 days by H and E staining based analysis; assay type: organism-based; details: in vivo, 168 h, dose 500-2000 mg/kg, time 7 day
# [26] = Hemolytic activity in sheep RBC assessed as hemolysis at 256 times MIC incubated for 1 hrs relative to control; assay type: toxicity, cell-based, Ovis aries, Erythrocyte; details: sheep red blood cells, read-out: Activity
# Staphylococcus aureus [27] = assay: Induction of oxidative damage in methicillin-resistant Staphylococcus aureus assessed as loss of GSH activity incubated for 8 hrs; assay type: functional, organism-based; details: dose 0.25-2 µg/ml
# Cell membrane [28] = assay: Induction of cell membrane permeability in methicillin-resistant Staphylococcus aureus assessed as increase in nucleic acid leakage at 2 ug/ml incubated for 8 hrs; assay type: subcellular; details: dose 2.0 µg/ml
# Staphylococcus aureus [29] = assay: Antibacterial activity against methicillin-resistant Staphylococcus aureus incubated for 6 hrs in presence of 10 to 60% sheep plasma; assay type: functional, organism-based
# Staphylococcus aureus [30] = assay: Antibacterial activity against methicillin-resistant Staphylococcus aureus clinical isolate M-23 incubated for 14 hrs by two-fold serial dilution method; assay type: functional
# Staphylococcus aureus [31] = assay: Antibacterial activity against methicillin-resistant Staphylococcus aureus ATCC 43300 assessed as inhibition of bacterial growth incubated for 14 hrs by two-fold serial dilution method; assay type: functional
# Staphylococcus aureus [32] = assay: In vivo antibacterial activity against methicillin-resistant Staphylococcus aureus infected in female Kunming mouse skin infection model assessed as log reduction in bacterial load at 5 mg/kg measured after 48 hrs (reference value: 14.34 log10CFU/g); assay type: functional
# Staphylococcus aureus [33] = assay: Bactericidal activity against Staphylococcus aureus ATCC 33591 assessed as eradication of bacteria at 4 times MIC measured at 4 hrs by time-kill kinetic assay relative to control; assay type: functional
# Calf thymus DNA [34] = assay: Binding affinity to calf thymus DNA assessed as dissociation constant by ITC assay; assay type: nucleic-acid assay, Bos taurus
# Staphylococcus aureus [35] = assay: Antibacterial activity against methicillin-resistant Staphylococcus aureus assessed as reduction in metabolic activity at 2 ug/ml incubated for 8 hrs by alamar blue staining based analysis relative to control; assay type: functional; design: scale not given: the % may be the effect or the level left; details: dose 2 µg/ml
# Calf thymus DNA [36] = assay: Binding affinity to calf thymus DNA assessed as change in Gibbs free energy at 3 uM by ITC assay; assay type: nucleic-acid assay; details: Bos taurus
# Staphylococcus aureus [37] = assay: Antibacterial activity against Staphylococcus aureus CMCC 26003 assessed as inhibition of bacterial growth incubated for 14 hrs by two-fold serial dilution method; assay type: functional
structure (smiles),measurement,setting,value
C[n+]1ccc2c3ccccc3n(CCCCCCCCCCCn3c4ccccc4c4cc[n+](C)cc43)c2c1.[I-].[I-],MIC,Staphylococcus aureus [1],0.5 µg/mL
same,Activity,Staphylococcus aureus [2],inactive
same,Activity,L02,97.25%
same,fold change (FC),Staphylococcus aureus [3],2
same,MIC,Staphylococcus aureus [4],0.5 µg/mL
same,deltaS,Calf thymus DNA [5],99.2 J/mol.K
same,Activity,Cell membrane [6],27.8 µg/mL
same,fold change (FC),Staphylococcus aureus [7],4.34
same,Activity,[8],Non-toxic
same,Activity,Lipoteichoic acid,31.7%
same,MIC,Staphylococcus aureus [9],1 µg/mL
same,Activity,Staphylococcus aureus [10],3.95 log10CFU/ml
same,Activity,Staphylococcus aureus [11],Active
same,fold change (FC),Staphylococcus aureus [12],4
same,Activity,Staphylococcus aureus [13],Active
same,Activity,Staphylococcus aureus [14],Dose-dependent-effect
same,Activity,[15],Non-toxic
same,Activity,[16],Non-toxic
same,Activity,[17],Non-toxic
same,Activity,[18],Non-toxic
same,Activity,Cell membrane [19],Dose-dependent-effect
same,deltaH,Calf thymus DNA [20],-0.223 kcal/mol
same,Activity,Staphylococcus aureus [21],7.29 log10CFU/g
same,Activity,Staphylococcus aureus [22],Active
same,MIC,Staphylococcus aureus [23],1 µg/mL
same,Activity,Staphylococcus aureus [24],98%
same,Activity,[25],Non-toxic
same,"hemolysis at 1 h, 256 times MIC",[26],< 10%
same,Activity,Staphylococcus aureus [27],Dose-dependent-effect
same,Activity,Cell membrane [28],Active
same,Activity,Staphylococcus aureus [29],Active
same,MIC,Staphylococcus aureus [30],0.5 µg/mL
same,MIC,Staphylococcus aureus [31],1 µg/mL
same,Activity,Staphylococcus aureus [32],4.85 log10CFU/g
same,Activity,Staphylococcus aureus [33],100%
same,Kd,Calf thymus DNA [34],4.52 µM
same,Activity,Staphylococcus aureus [35],64.56%
same,deltaG,Calf thymus DNA [36],-7.29 kcal/mol
same,MIC,Staphylococcus aureus [37],0.25 µg/mL
